Measurements taken from patent US8658642B2 (Axikin Pharmaceuticals, Inc., priority 2009, dated 2014).

Molecular target: T1, CCR3 (Homo sapiens, UniProt P51677)
T1 sequence (P51677 1-355): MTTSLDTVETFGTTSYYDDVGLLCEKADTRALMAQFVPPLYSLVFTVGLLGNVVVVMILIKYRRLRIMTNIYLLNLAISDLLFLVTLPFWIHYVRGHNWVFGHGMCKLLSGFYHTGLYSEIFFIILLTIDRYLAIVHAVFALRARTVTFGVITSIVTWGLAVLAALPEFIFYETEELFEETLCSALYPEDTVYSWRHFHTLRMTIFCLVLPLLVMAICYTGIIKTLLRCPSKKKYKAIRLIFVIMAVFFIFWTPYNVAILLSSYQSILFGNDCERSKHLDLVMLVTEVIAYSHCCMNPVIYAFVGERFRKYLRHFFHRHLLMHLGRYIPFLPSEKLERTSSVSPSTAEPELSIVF
Assay: CCR3 receptor binding assay ([125I]-labeled human eotaxin/CCL11 displacement on cells)
Details: 0.1 nM [125I]-labeled human eotaxin/CCL11, 2×10^5 cells/well, 60 min at room temperature
Description: CCR3 Receptor Binding Assay
Cells were washed once with PBS and resuspended in a binding buffer (25 mM HEPES pH 7.6, 5 mM MgCl2, 1 mM CaCl2, 0.5% BSA, 0.1% NaN3). […] of cell suspension (2×10^5 cells/well) and 0.1 nM [^125I]-labeled human eotaxin/CCL11 (2000 Ci/mmol specific activity) were mixed in a 96-well U-bottom polypropylene plate, and incubated for 60 min at room temperature for the binding reaction. The cell suspension was then transferred to a filtration plate (#MAFB, Millipore), and washed 3 times with the binding buffer containing 0.5 M NaCl, scintillant added, and the radioactivity was counted on a TopCount (Packard). For the determination of non-specific binding, the cell suspension and [^125I]-labeled human eotaxin/CCL11 were incubated in the presence of 500 nM of unlabeled human eotaxin/CCL11. See, lino et al., “Molecular cloning and functional characterization of cynomolgus monkey (Macaca fascicularis) CC chemokine receptor, CCR3,” Cytokine 2002, 19, 276-286.
Work on CCOC(=O)CCNC(=S)N1CCN(S(=O)(=O)c2cc(C#N)ccc2Oc2cc(Cl)cc(Cl)c2)CC1 [Compound 143] yielded a Ki of 0.05 to 0.5 µM. For N#Cc1ccc(Oc2cc(Cl)cc(Cl)c2)c(S(=O)(=O)N2CCN(C(=S)Nc3ccccc3)CC2)c1 [Compound 144], the Ki was ≤ 0.05 µM. In the case of N#Cc1ccc(Oc2cc(Cl)cc(Cl)c2)c(S(=O)(=O)N2CCN(C(=S)NC(=O)c3ccccc3)CC2)c1 [Compound 145], the Ki is reported as ≤ 0.05 µM. In the case of CSCCCNC(=S)N1CCN(S(=O)(=O)c2cc(C#N)ccc2Oc2cc(Cl)cc(Cl)c2)CC1 [Compound 146], the Ki is reported as ≤ 0.05 µM. With N#Cc1ccc(Oc2cc(Cl)cc(Cl)c2)c(S(=O)(=O)N2CCN(C(=S)NC(=O)/C=C/c3ccccc3)CC2)c1 [Compound 147] the Ki was > 5 µM. Work on N#CCC(=O)N1CCN(S(=O)(=O)c2cc(C#N)ccc2Oc2cc(Cl)cc(Cl)c2)CC1 [Compound 148] yielded a Ki of 0.05 to 0.5 µM. In the case of N#Cc1ccc(Oc2cc(Cl)cc(Cl)c2)c(S(=O)(=O)N2CCN(C(=S)NCc3cccc(Cl)c3)CC2)c1 [Compound 149], the Ki is reported as > 5 µM. With C=CNC(=O)N1CCN(S(=O)(=O)c2cc(C#N)ccc2Oc2cc(Cl)cc(Cl)c2)CC1 [Compound 150] the Ki was > 5 µM. In the case of CC(C)CC(=O)N1CCN(S(=O)(=O)c2cc([N+](=O)[O-])ccc2Sc2cc(Cl)ccc2Cl)CC1 [Compound 152, 1-(4-(2-(2,5-Dichlorophenylthio)-5-nitrophenylsulfonyl)piperazin-1-yl)-3-methylbutan-1-one], the Ki is reported as > 5 µM. For O=C(c1ccc(C(F)(F)F)cc1)N1CCN(S(=O)(=O)c2cc([N+](=O)[O-])ccc2Sc2cc(Cl)ccc2Cl)CC1 [Compound 153, (4-(2-(2,5-Dichlorophenylthio)-5-nitrophenylsulfonyl)piperazin-1-yl)(4-(trifluoromethyl)phenyl)methanone], the Ki was > 5 µM. In the case of N/C(=N\[N+](=O)[O-])N1CCN(S(=O)(=O)c2cc([N+](=O)[O-])ccc2Oc2cc(Cl)cc(Cl)c2)CC1 [Compound 154], the Ki is reported as > 5 µM. In the case of N#Cc1ccc(Oc2cc(Cl)cc(Cl)c2)c(S(=O)(=O)N2CCN(C(=O)Oc3ccc([N+](=O)[O-])cc3)CC2)c1 [Compound 155], the Ki is reported as > 5 µM. For COc1ccc(OC(=O)N2CCN(S(=O)(=O)c3cc(C#N)ccc3Oc3cc(Cl)cc(Cl)c3)CC2)cc1 [Compound 156], the Ki was > 5 µM. For Cc1ccc(OC(=O)N2CCN(S(=O)(=O)c3cc(C#N)ccc3Oc3cc(Cl)cc(Cl)c3)CC2)cc1 [Compound 157], the Ki was > 5 µM. For N#Cc1ccc(Oc2cc(Cl)cc(Cl)c2)c(S(=O)(=O)N2CCN(C(=O)OCCCCCl)CC2)c1 [Compound 158], the Ki was > 5 µM. For C=CCOC(=O)N1CCN(S(=O)(=O)c2cc(C#N)ccc2Oc2cc(Cl)cc(Cl)c2)CC1 [Compound 159], the Ki was > 5 µM. With O=C(CCCCl)N1CCN(S(=O)(=O)c2cc([N+](=O)[O-])ccc2Sc2cc(Cl)ccc2Cl)CC1 [Compound 160, 4-Chloro-1-(4-(2-(2,5-dichlorophenylthio)-5-nitrophenylsulfonyl)piperazin-1-yl)butan-1-one] the Ki was > 5 µM. With O=C(C1CCC1)N1CCN(S(=O)(=O)c2cc([N+](=O)[O-])ccc2Sc2cc(Cl)ccc2Cl)CC1 [Compound 161, Cyclobutyl(4-(2-(2,5-dichlorophenylthio)-5-nitrophenylsulfonyl)piperazin-1-yl)methanone] the Ki was > 5 µM. For O=C(C1CCCCC1)N1CCN(S(=O)(=O)c2cc([N+](=O)[O-])ccc2Sc2cc(Cl)ccc2Cl)CC1 [Compound 162, Cyclohexyl(4-(2-(2,5-dichlorophenylthio)-5-nitrophenylsulfonyl)piperazin-1-yl)methanone], the Ki was > 5 µM. With O=C(c1ccccc1)N1CCN(S(=O)(=O)c2cc([N+](=O)[O-])ccc2Sc2cc(Cl)ccc2Cl)CC1 [Compound 163, (4-(2-(2,5-Dichlorophenylthio)-5-nitrophenylsulfonyl)piperazin-1-yl)(phenyl)methanone] the Ki was > 5 µM. With O=C(c1ccc(Cl)cc1)N1CCN(S(=O)(=O)c2cc([N+](=O)[O-])ccc2Sc2cc(Cl)ccc2Cl)CC1 [Compound 164, (4-Chlorophenyl)(4-(2-(2,5-dichlorophenylthio)-5-nitrophenylsulfonyl)-piperazin-1-yl)methanone] the Ki was > 5 µM. In the case of COc1ccc(C(=O)N2CCN(S(=O)(=O)c3cc([N+](=O)[O-])ccc3Sc3cc(Cl)ccc3Cl)CC2)cc1 [Compound 165, (4-Methoxyphenyl)(4-(2-(2,5-dichlorophenylthio)-5-nitrophenylsulfonyl)-piperazin-1-yl)methanone], the Ki is reported as > 5 µM. With Cc1ccc(C)c(Sc2ccc([N+](=O)[O-])cc2S(=O)(=O)N2CCN(C(=O)c3ccccc3)CC2)c1 [Compound 172, (4-(2-(2,5-Dimethylphenylthio)-5-nitrophenylsulfonyl)piperazin-1-yl)(phenyl)methanone] the Ki was > 5 µM. With Cc1ccc(C)c(Sc2ccc([N+](=O)[O-])cc2S(=O)(=O)N2CCN(C(=O)c3ccc(Cl)cc3)CC2)c1 [Compound 173, (4-Chlorophenyl)(4-(2-(2,5-dimethylphenylthio)-5-nitrophenylsulfonyl)-piperazin-1-yl)methanone] the Ki was > 5 µM. In the case of COc1ccc(C(=O)N2CCN(S(=O)(=O)c3cc([N+](=O)[O-])ccc3Sc3cc(C)ccc3C)CC2)cc1 [Compound 174, (4-(2-(2,5-Dimethylphenylthio)-5-nitrophenylsulfonyl)piperazin-1-yl)(4-methoxyphenyl)methanone], the Ki is reported as > 5 µM. In the case of CC(C)CC(=O)N1CCN(S(=O)(=O)c2cc([N+](=O)[O-])ccc2Oc2cc(Cl)ccc2Cl)CC1 [Compound 177, 1-(4-(2-(2,5-Dichlorophenoxy)-5-nitrophenylsulfonyl)piperazin-1-yl)-3-methylbutan-1-one], the Ki is reported as > 5 µM. With O=C(c1ccccc1)N1CCN(S(=O)(=O)c2cc([N+](=O)[O-])ccc2Oc2cc(Cl)ccc2Cl)CC1 [Compound 182, (4-(2-(2,5-Dichlorophenoxy)-5-nitrophenylsulfonyl)piperazin-1-yl)(phenyl)methanone] the Ki was > 5 µM. With COc1ccc(C(=O)N2CCN(S(=O)(=O)c3cc([N+](=O)[O-])ccc3Oc3cc(Cl)ccc3Cl)CC2)cc1 [Compound 184, (4-(2-(2,5-Dichlorophenoxy)-5-nitrophenylsulfonyl)piperazin-1-yl)(4-methoxyphenyl)methanone] the Ki was > 5 µM. For O=C(c1ccco1)N1CCN(S(=O)(=O)c2cc([N+](=O)[O-])ccc2Oc2cc(Cl)ccc2Cl)CC1 [Compound 185, (4-(2-(2,5-Dichlorophenoxy)-5-nitrophenylsulfonyl)piperazin-1-yl)(furan-2-yl)methanone], the Ki was > 5 µM. For COc1ccc(C(=O)N2CCN(S(=O)(=O)c3cc([N+](=O)[O-])ccc3Oc3cc(C)ccc3C)CC2)cc1 [Compound 189, (4-(2-(2,5-Dimethylphenoxy)-5-nitrophenylsulfonyl)piperazin-1-yl)(4-methoxyphenyl)methanone], the Ki was > 5 µM. With Cc1ccc(C)c(Oc2ccc([N+](=O)[O-])cc2S(=O)(=O)N2CCN(C(=O)c3ccco3)CC2)c1 [Compound 190, (4-(2-(2,5-Dimethylphenoxy)-5-nitrophenylsulfonyl)piperazin-1-yl)(furan-2-yl)methanone] the Ki was > 5 µM. In the case of C=CCNC(=O)N1CCN(S(=O)(=O)c2cc([N+](=O)[O-])ccc2Sc2cc(Cl)ccc2Cl)CC1 [Compound 191, N-Allyl-4-(2-(2,5-dichlorophenylthio)-5-nitrophenylsulfonyl)piperazine-1-carboxamide], the Ki is reported as ≤ 0.05 µM. For Cc1ccc(NC(=O)N2CCN(S(=O)(=O)c3cc([N+](=O)[O-])ccc3Sc3cc(Cl)ccc3Cl)CC2)cc1 [Compound 193, 4-(2-(2,5-Dichlorophenylthio)-5-nitrophenylsulfonyl)-N-p-tolylpiperazine-1-carboxamide], the Ki was > 5 µM. In the case of N#Cc1ccc(NC(=O)N2CCN(S(=O)(=O)c3cc([N+](=O)[O-])ccc3Sc3cc(Cl)ccc3Cl)CC2)cc1 [Compound 194, N-(4-Cyanophenyl)-4-(2-(2,5-dichlorophenylthio)-5-nitrophenylsulfonyl)-piperazine-1-carboxamide], the Ki is reported as > 5 µM. In the case of O=C(Nc1ccc([N+](=O)[O-])cc1)N1CCN(S(=O)(=O)c2cc([N+](=O)[O-])ccc2Sc2cc(Cl)ccc2Cl)CC1 [Compound 195, 4-(2-(2,5-Dichlorophenylthio)-5-nitrophenylsulfonyl)-N-(4-nitrophenyl)-piperazine-1-carboxamide], the Ki is reported as > 5 µM. With CCOC(=O)CCNC(=S)N1CCN(S(=O)(=O)c2cc([N+](=O)[O-])ccc2Sc2cc(Cl)ccc2Cl)CC1 [Compound 198] the Ki was ≤ 0.05 µM.

Test system: not given
Assay: not given
Details: not given
In the case of O=C(c1ccco1)N1CCN(S(=O)(=O)c2cc([N+](=O)[O-])ccc2Sc2cc(Cl)ccc2Cl)CC1 [Compound 166, (4-(2-(2,5-Dichlorophenylthio)-5-nitrophenylsulfonyl)piperazin-1-yl)(furan-2-yl)methanone], the melting point is reported as 199 to 202 °C. In the case of Cc1ccc(C)c(Sc2ccc([N+](=O)[O-])cc2S(=O)(=O)N2CCN(C(=O)c3ccccc3)CC2)c1 [Compound 172, (4-(2-(2,5-Dimethylphenylthio)-5-nitrophenylsulfonyl)piperazin-1-yl)(phenyl)methanone], the melting point is reported as 190 to 193 °C. With O=C(c1ccccc1)N1CCN(S(=O)(=O)c2cc([N+](=O)[O-])ccc2Oc2cc(Cl)ccc2Cl)CC1 [Compound 182, (4-(2-(2,5-Dichlorophenoxy)-5-nitrophenylsulfonyl)piperazin-1-yl)(phenyl)methanone] the melting point was 206 to 209 °C.
